Data reported in US20180015051A1, “MODULATORS OF ALPHA-DICARBONYL DETOXIFICATION AND THEIR USE FOR THE TREATMENT OF DIABETIC PATHOLOGIES” (Buck Institute for Research on Aging, priority 2016, published 2018).

Legend:
[1] = mice and humans; Gomes and Negrato (2014); cited from earlier work
native HEK293T cells = assay: Calcium imaging of native HEK293T cells (GFP only); assay type: cell-based
Protocol: Appropriate HEK293T-derived cells were seeded on collagen-coated glass bottom culture dishes (MatTek Corporation). Cells were loaded with 10 pM of Rhod-3 AM (Life Technology) for 30 min at 37° C. After 30 min they were washed twice with standard Tyrode's solution (135 mM NaCl, 4 mM KCl, 10 mM glucose, 10 mM HEPES, 2 mM CaCl2, and 1 mM MgCl2 at pH=7.4) at room temperature. Calcium imaging was performed on an Olympus BX51WI Axiovert microscope under a 60× objective. Fluorescent images were documented upon sequential excitation with 555 nm followed by 484 nm with a Roper CoolSnap CCD camera. After establishing a baseline 555/484 ratio, methylglyoxal or other agonists were diluted with Tyrode's solution (100 pM or 1 mM final concentration) and were perfused into cells. Images were processed with the MetaFlour (Olympus) software.

DAF-16/FOXO = assay: DAF-16::GFP nuclear localization; assay type: in vivo, Caenorhabditis elegans; settings: 7 mM MGO vs water; heat shock positive control
Protocol: FIG. 11, panels A-E, SKN-1/Nrf2 activation due to exogenous MGO treatment and specificity of downstream response to a-DC stress. Related to FIG. 3. (A) Quantification (left) and fluorescence microscopy images (right) of GFP foci in gst-4p::gfp animals reared on empty vector (EV, L4440) or skn-1 RNAi supplemented with water (control) or 7 mM MGO. Foci are marked by white arrows. n=91. Scale bar 0.15 mm. […] Animals were categorized as follows: ‘high’ for strong GFP signal throughout the intestine, ‘medium’ for GFP signal in the anterior or posterior section of the intestine and ‘low’ for weak or no signal. n=100. (C) qPCR analysis of SKN-1 target genes, gst-4 and gcs-1 in N2 animals reared on EV or skn-1 RNAi supplemented with water (control, −) or 7 mM MGO (+). The data is normalized to the corresponding expression levels in N2 (EV, water), represented by the dotted line. (D) Fluorescence microscopy images depicting nuclear localization of DAF-16::GFP and SKN-1::GFP supplemented with water (control) or 7 mM MGO. Heat shock was used as a positive control to drive DAF-16 nuclear localization. Red arrows point towards nuclear localized transcription factors (SKN-1 and DAF-16). Scale bar 20 pm. (E) Fluorescence microscopy images to observe GFP foci in glod-4;gst-4p::gfp animals reared on empty vector (EV, L4440), sgk-1, sek-1, or pmk-1 RNAi. Scale bar 20 pm.

For `O=C(O)CCCCC1CCSS1` (stereo not drawn) [LA, a-lipoic acid], the “Effect on diabetic complications” value [1] is given as “documented to ameliorate diabetic complications”.
With `CC(=O)C=O` [MGO, methylglyoxal] the “Ca2+ flux in native HEK293T cells (Rhod-3 AM)” value (native HEK293T cells) was “neither compounds resulted in Ca^+2 flux” and the DAF-16/FOXO nuclear localization (DAF-16/FOXO) was “failed to trigger”.
